The values that follow come from patent US20190047966A1, “NOVEL COMPOUND AND PHARMACOLOGICALLY ACCEPTABLE SALT THEREOF” (MEIJI SEIKA PHARMA CO., LTD., priority 2016, published 2019).

Assay [1] has as its target T1, human histamine H4 receptor (Homo sapiens, UniProt Q9H3N8).
T1 construct: purchased PerkinElmer Inc; host or cells: CHO-K1
The experiment in a line: Evaluation of Human H4 Receptor Affinity ([3H]histamine binding). The following applies: inhibition constant Ki, CHO-K1 membrane preparation, read-out: Evaluation of H4 Receptor Affinity. In short, it runs like this:
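Membranes from CHO-K1 cells expressing human H4 receptor incubated with 8.2 nM [3H]histamine and compound for 90 min at 25 °C in 50 mM Tris-HCl pH 7.4, 1.25 mM EDTA, then filtered and counted. Nonspecific binding defined with 1.0 μM histamine; Ki from IC50 by Cheng-Prusoff using Kd 5.7 nM.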

Assay [2] concerns the target human histamine H1 receptor (Homo sapiens, UniProt P35367). The experiment in a line: Evaluation of Human H1 Receptor Affinity ([3H]pyrilamine binding). Also noted: purchased PerkinElmer Inc; host or cells: CHO-K1. The following applies: inhibition constant Ki, CHO-K1 membrane preparation. Summed up:
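Ki values are Cheng-Prusoff conversions of IC50 (Kd 1.1 nM) from radioligand displacement of 1.2 nM [3H]pyrilamine, with 1.0 μM pyrilamine defining nonspecific binding.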

Sequence of human histamine H1 receptor (P35367 whole entry): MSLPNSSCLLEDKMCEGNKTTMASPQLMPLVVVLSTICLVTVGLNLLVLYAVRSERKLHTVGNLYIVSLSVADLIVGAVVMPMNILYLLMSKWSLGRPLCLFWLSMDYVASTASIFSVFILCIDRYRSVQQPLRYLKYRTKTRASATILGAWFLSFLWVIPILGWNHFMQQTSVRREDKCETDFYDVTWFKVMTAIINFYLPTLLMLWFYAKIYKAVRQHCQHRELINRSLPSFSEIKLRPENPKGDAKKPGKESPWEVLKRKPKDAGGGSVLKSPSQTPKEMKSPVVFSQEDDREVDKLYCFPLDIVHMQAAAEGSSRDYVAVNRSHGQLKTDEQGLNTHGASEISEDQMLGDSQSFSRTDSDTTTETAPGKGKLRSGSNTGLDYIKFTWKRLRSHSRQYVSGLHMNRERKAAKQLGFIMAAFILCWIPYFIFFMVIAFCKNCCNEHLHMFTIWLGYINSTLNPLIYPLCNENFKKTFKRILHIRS
T1 sequence (Q9H3N8 whole entry): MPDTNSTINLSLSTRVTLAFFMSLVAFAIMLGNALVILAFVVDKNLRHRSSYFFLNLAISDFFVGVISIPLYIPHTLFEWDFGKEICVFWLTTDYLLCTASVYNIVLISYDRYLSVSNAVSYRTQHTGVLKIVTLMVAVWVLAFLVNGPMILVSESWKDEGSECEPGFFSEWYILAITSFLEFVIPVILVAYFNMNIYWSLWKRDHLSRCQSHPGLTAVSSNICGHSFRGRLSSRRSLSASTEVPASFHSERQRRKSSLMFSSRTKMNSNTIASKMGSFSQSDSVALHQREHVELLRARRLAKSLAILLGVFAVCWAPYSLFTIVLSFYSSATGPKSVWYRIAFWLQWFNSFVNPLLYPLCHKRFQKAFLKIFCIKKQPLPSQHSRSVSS

For `Nc1nc2c(c(N3CCN(CCO[C@H]4C[C@H](C(=O)O)C4)CC3)n1)CCc1cc(OCc3ccc(OC(F)(F)F)cc3)ccc1-2` [Example 30, trans-3-(2-(4-(2-amino-8-((4-(trifluoromethoxy)benzyl)oxy)-5,6-dihydrobenzo[h]quinazolin-4-yl)piperazin-1-yl)ethoxy)cyclobutane-1-carboxylic acid], the Ki in assay [1] and in assay [2] was less than 100 nM throughout.

For the compound `CC1(C(=O)O)CC(OCCN2CCN(c3nc(N)nc4c3CCc3cc(OCc5ccc(OC(F)(F)F)cc5)ccc3-4)CC2)C1` (stereo not drawn) [Example 31, cis-3-(2-(4-(2-amino-8-((4-(trifluoromethoxy)benzyl)oxy)-5,6-dihydrobenzo[h]quinazolin-4-yl)piperazin-1-yl)ethoxy)-1-methylcyclobutane-1-carboxylic acid], the values for the Ki in assay [1] and in assay [2] were 100 to 500 nM and less than 100 nM, respectively.

For the compound `Nc1nc2c(c(N3CCN(CCO[C@H]4C[C@@H](C(N)=O)C4)CC3)n1)CCc1cc(OCc3ccc(OC(F)(F)F)cc3)ccc1-2` [Example 33, cis 3-(2-(4-(2-amino-8-((4-(trifluoromethoxy)benzyl)oxy)-5,6-dihydrobenzo[h]quinazolin-4-yl)piperazin-1-yl)ethoxy)cyclobutane-1-carboxamide], the Ki in assay [1] and in assay [2] was less than 100 nM throughout.

As to `Nc1nc2c(c(N3CCN(CCO[C@H]4C[C@H](C(N)=O)C4)CC3)n1)CCc1cc(OCc3ccc(OC(F)(F)F)cc3)ccc1-2` [Example 34, trans-3-(2-(4-(2-amino-8-((4-(trifluoromethoxy)benzyl)oxy)-5,6-dihydrobenzo[h]quinazolin-4-yl)piperazin-1-yl)ethoxy)cyclobutane-1-carboxamide], the Ki in assay [1] and in assay [2] was less than 100 nM in each case.

Take `CN1CCN(c2nc(N)nc3c2CCc2cc(NS(=O)(=O)CCCOc4ccccc4)ccc2-3)CC1` [Example 40, N-(2-amino-4-(4-methylpiperazin-1-yl)-5,6-dihydrobenzo[h]quinazolin-8-yl)-3-phenoxypropane-1-sulfonamide]: the Ki in assay [1] and in assay [2] was less than 100 nM in each case.

With `CN1CCN(c2nc(N)nc3c2CCc2cc(NS(=O)(=O)c4ccccc4)ccc2-3)CC1` [Example 41, N-(2-amino-4-(4-methylpiperazin-1-yl)-5,6-dihydrobenzo[h]quinazolin-8-yl)benzenesulfonamide], the Ki in assay [1] and in assay [2] was 100 to 500 nM throughout.

As to `CN1CCN(c2nc(N)nc3c2CCc2cc(NS(=O)(=O)c4cccc(Cl)c4)ccc2-3)CC1` [Example 43, N-(2-amino-4-(4-methylpiperazin-1-yl)-5,6-dihydrobenzo[h]quinazolin-8-yl)-3-chlorobenzenesulfonamide], the Ki in assay [1] and in assay [2] was 100 to 500 nM in each case.

Regarding `CN1CCN(c2nc(N)nc3c2CCc2cc(NS(=O)(=O)c4ccc(Cl)s4)ccc2-3)CC1` [Example 44, N-(2-amino-4-(4-methylpiperazin-1-yl)-5,6-dihydrobenzo[h]quinazolin-8-yl)-5-chlorothiophene-2-sulfonamide], the Ki in assay [1] and in assay [2] was 100 to 500 nM throughout.

With `CN1CCN(c2nc(N)nc3c2CCc2cc(NS(=O)(=O)c4ccc(Cl)c(F)c4)ccc2-3)CC1` [Example 45, N-(2-amino-4-(4-methylpiperazin-1-yl)-5,6-dihydrobenzo[h]quinazolin-8-yl)-4-chloro-3-fluorobenzenesulfonamide], the Ki in assay [1] is 100 to 500 nM; in assay [2], less than 100 nM.

On to `CN1CCN(c2nc(N)nc3c2CCc2cc(NS(=O)(=O)c4ccc(Cl)cc4F)ccc2-3)CC1` [Example 46, N-(2-amino-4-(4-methylpiperazin-1-yl)-5,6-dihydrobenzo[h]quinazolin-8-yl)-4-chloro-2-fluorobenzenesulfonamide], for which the Ki in assay [1] was 100 to 500 nM; in assay [2] it was less than 100 nM.

Take `CN1CCN(c2nc(N)nc3c2CCc2cc(NS(=O)(=O)c4ccc(C#N)cc4)ccc2-3)CC1` [Example 47, N-(2-amino-4-(4-methylpiperazin-1-yl)-5,6-dihydrobenzo[h]quinazolin-8-yl)-4-cyanobenzenesulfonamide]: the Ki in assay [1] and in assay [2] was 100 to 500 nM in each case.

For `CN1CCN(c2nc(N)nc3c2CCc2cc(NS(=O)(=O)Cc4ccccc4)ccc2-3)CC1` [Example 48, N-(2-amino-4-(4-methylpiperazin-1-yl)-5,6-dihydrobenzo[h]quinazolin-8-yl)-1-phenylmethanesulfonamide], the Ki in assay [1] and in assay [2] was 100 to 500 nM throughout.

Consider `CN1CCN(c2nc(N)nc3c2CCc2cc(NS(=O)(=O)c4ccc(Cl)nc4)ccc2-3)CC1` [Example 49, N-(2-amino-4-(4-methylpiperazin-1-yl)-5,6-dihydrobenzo[h]quinazolin-8-yl)-6-chloropyridine-3-sulfonamide], for which the Ki in assay [1] and in assay [2] was 100 to 500 nM in each case.

Regarding `CN1CCN(c2nc(N)nc3c2CCc2cc(NS(=O)(=O)c4ccc(F)cc4)ccc2-3)CC1` [Example 50, N-(2-amino-4-(4-methylpiperazin-1-yl)-5,6-dihydrobenzo[h]quinazolin-8-yl)-4-fluorobenzenesulfonamide], the Ki in assay [1] and in assay [2] was less than 100 nM in each case.

`CN1CCN(c2nc(N)nc3c2CCc2cc(NS(=O)(=O)CCc4ccccc4)ccc2-3)CC1` [Example 51, N-(2-amino-4-(4-methylpiperazin-1-yl)-5,6-dihydrobenzo[h]quinazolin-8-yl)-6-phenylethane-1-sulfonamide]: the Ki in assay [1] and in assay [2] was less than 100 nM throughout.

Take `CN1CCN(c2nc(N)nc3c2CCc2cc(NS(=O)(=O)CCCc4ccccc4)ccc2-3)CC1` [Example 52, N-(2-amino-4-(4-methylpiperazin-1-yl)-5,6-dihydrobenzo[h]quinazolin-8-yl)-3-phenylpropane-1-sulfonamide]: the Ki in assay [1] and in assay [2] was less than 100 nM in each case.

As to `COc1ccc(S(=O)(=O)Nc2ccc3c(c2)CCc2c-3nc(N)nc2N2CCN(C)CC2)cc1` [Example 53, N-(2-amino-4-(4-methylpiperazin-1-yl)-5,6-dihydrobenzo[h]quinazolin-8-yl)-4-methoxybenzenesulfonamide], the values for the Ki in assay [1] and in assay [2] were 100 to 500 nM and less than 100 nM, respectively.

Take `COC(=O)c1ccc(S(=O)(=O)Nc2ccc3c(c2)CCc2c-3nc(N)nc2N2CCN(C)CC2)cc1` [Example 55, methyl 4-(N-(2-amino-4-(4-methylpiperazin-1-yl)-5,6-dihydrobenzo[h]quinazolin-8-yl)sulfamoyl)benzoate]: the Ki in assay [1] and in assay [2] was 100 to 500 nM in each case.

`CN1CCN(c2nc(N)nc3c2CCc2cc(NS(=O)(=O)C4CCCCC4)ccc2-3)CC1` [Example 56, N-(2-amino-4-(4-methylpiperazin-1-yl)-5,6-dihydrobenzo[h]quinazolin-8-yl)cyclohexanesulfonamide]: the Ki in assay [1] and in assay [2] was 100 to 500 nM in each case.

For `CN[C@H]1CCN(c2nc(N)nc3c2CCc2cc(OCc4ccccc4)ccc2-3)C1` [Example 101, (S)-8-(benzyloxy)-4-(3-(methylamino)pyrrolidin-1-yl)-5,6-dihydrobenzo[h]quinazolin-2-amine], the Ki in assay [1] is less than 100 nM; in assay [2], 100 to 500 nM.

Turning to `CN(C)[C@@H]1CCN(c2nc(N)nc3c2CCc2cc(OCc4ccccc4)ccc2-3)C1` [Example 103, (R)-8-(benzyloxy)-4-(3-(dimethylamino)pyrrolidin-1-yl)-5,6-dihydrobenzo[h]quinazolin-2-amine], the Ki is less than 100 nM in assay [1] and 100 to 500 nM in assay [2].

As for `CN(C)C1CCN(c2nc(N)nc3c2CCc2cc(OCc4ccccc4)ccc2-3)CC1` [Example 104, 8-(benzyloxy)-4-(4-(dimethylamino)piperidin-1-yl)-5,6-dihydrobenzo[h]quinazolin-2-amine], the Ki was less than 100 nM in assay [1] and 100 to 500 nM in assay [2].

Take `CCS(=O)(=O)NCCCCN1CCN(c2nc(N)nc3c2CCc2cc(OCc4ccccc4)ccc2-3)CC1` [Example 105, N-(4-(4-(2-amino-8-(benzyloxy)-5,6-dihydrobenzo[h]quinazolin-4-yl)piperazin-1-yl)butyl)ethanesulfonamide bis(trifluoroacetate)]: the Ki is 100 to 500 nM in assay [1] and less than 100 nM in assay [2].

For the compound `CN1CCN(c2nc(N)nc3c2CCc2cc(OCc4ccccc4)ccc2-3)CC1CO` (stereo not drawn) [Example 106, (4-(2-amino-8-(benzyloxy)-5,6-dihydrobenzo[h]quinazolin-4-yl)-1-methylpiperazin-2-yl)methanol], the Ki in assay [1] and in assay [2] was 100 to 500 nM in each case.

Regarding `CCS(=O)(=O)CCCN1CCN(c2nc(N)nc3c2CCc2cc(OCc4ccccc4)ccc2-3)CC1` [Example 107, 8-(benzyloxy)-4-(4-(3-(ethylsulfonyl)propyl)piperazin-1-yl)-5,6-dihydrobenzo[h]quinazolin-2-amine], the Ki in assay [1] was 100 to 500 nM; in assay [2] it was less than 100 nM.

Take `CNC(=O)COCCOCCN1CCN(c2nc(N)nc3c2CCc2cc(OCc4ccccc4)ccc2-3)CC1` [Example 108, 2-(2-(2-(4-(2-amino-8-(benzyloxy)-5,6-dihydrobenzo[h]quinazolin-4-yl)piperazin-1-yl)ethoxy)ethoxy)-N-methylacetamide]: the Ki in assay [1] and in assay [2] was less than 100 nM throughout.

With `NC(=O)COCCOCCN1CCN(c2nc(N)nc3c2CCc2cc(OCc4ccccc4)ccc2-3)CC1` [Example 109, 2-(2-(2-(4-(2-amino-8-(benzyloxy)-5,6-dihydrobenzo[h]quinazolin-4-yl)piperazin-1-yl)ethoxy)ethoxy)acetamide], the Ki was 100 to 500 nM in assay [1] and less than 100 nM in assay [2].
